Data as given in ChEMBL document CHEMBL1933028, “Discovery of cyclic amine-substituted benzoic acids as PPARα agonists” (Bioorg Med Chem Lett, 2012).
Numbering of substitutions follows the chain as printed. pEC50: −log10 of the molar value.

Key:
[1] = target: T1, Peroxisome proliferator-activated receptor alpha (Homo sapiens, UniProt Q07869); assay: Transactivation of human PPARalpha expressed in CHO-K1 cells; format: cell-based
T1 sequence (Q07869 whole entry): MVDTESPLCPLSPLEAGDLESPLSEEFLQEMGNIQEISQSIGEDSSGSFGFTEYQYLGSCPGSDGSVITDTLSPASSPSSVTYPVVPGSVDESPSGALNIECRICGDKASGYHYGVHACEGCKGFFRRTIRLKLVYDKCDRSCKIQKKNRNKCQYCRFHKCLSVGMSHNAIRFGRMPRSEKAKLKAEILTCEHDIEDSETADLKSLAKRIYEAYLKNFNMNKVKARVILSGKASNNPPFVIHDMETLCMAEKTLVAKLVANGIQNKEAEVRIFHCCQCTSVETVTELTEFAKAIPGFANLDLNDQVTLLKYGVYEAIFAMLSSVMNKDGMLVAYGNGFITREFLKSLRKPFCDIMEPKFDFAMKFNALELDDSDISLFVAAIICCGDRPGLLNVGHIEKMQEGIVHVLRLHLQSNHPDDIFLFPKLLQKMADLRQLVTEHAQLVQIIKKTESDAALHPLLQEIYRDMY

[2] = Oral bioavailability in rat at 1 mg/kg; format: ADME, organism-based; conditions: in vivo
[3] = target: T2, Peroxisome proliferator-activated receptor gamma (Homo sapiens, UniProt P37231); assay: Transactivation of human PPARgamma expressed in CHO-K1 cells; format: cell-based
T2 sequence (P37231 whole entry): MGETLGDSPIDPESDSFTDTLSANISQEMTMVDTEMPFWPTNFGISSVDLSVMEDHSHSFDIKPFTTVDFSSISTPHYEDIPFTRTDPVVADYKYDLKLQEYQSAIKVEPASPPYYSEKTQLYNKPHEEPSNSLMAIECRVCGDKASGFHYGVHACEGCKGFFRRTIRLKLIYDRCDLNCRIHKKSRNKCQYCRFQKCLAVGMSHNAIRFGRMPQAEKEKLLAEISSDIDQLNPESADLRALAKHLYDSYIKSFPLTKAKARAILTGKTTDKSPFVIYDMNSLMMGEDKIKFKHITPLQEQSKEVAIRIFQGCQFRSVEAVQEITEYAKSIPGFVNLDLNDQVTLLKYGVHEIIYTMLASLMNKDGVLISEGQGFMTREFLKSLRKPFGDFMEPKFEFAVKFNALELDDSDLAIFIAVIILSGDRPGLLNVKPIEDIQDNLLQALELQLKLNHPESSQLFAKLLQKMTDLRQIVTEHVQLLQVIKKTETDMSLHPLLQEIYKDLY

[4] = target: T3, Peroxisome proliferator-activated receptor delta (Canis lupus familiaris, UniProt Q0ZAQ8); assay: Agonist activity at dog PPARdelta; format: functional
T3 sequence (Q0ZAQ8 whole entry): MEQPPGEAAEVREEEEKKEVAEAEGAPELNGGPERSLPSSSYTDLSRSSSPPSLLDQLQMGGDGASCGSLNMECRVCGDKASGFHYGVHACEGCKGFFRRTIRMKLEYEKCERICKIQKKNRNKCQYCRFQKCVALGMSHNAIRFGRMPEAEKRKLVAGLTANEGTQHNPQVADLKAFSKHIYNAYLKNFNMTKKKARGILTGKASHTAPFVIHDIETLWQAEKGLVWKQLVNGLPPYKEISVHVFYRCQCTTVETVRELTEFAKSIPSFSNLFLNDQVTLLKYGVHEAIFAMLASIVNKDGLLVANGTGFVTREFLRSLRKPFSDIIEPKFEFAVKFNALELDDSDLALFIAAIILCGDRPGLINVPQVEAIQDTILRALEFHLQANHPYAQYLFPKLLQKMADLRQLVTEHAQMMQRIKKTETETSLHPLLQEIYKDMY

[5] = target: T4, Peroxisome proliferator-activated receptor alpha (Mus musculus, UniProt P23204); assay: Agonist activity at mouse PPARalpha; format: functional
T4 sequence (P23204 whole entry): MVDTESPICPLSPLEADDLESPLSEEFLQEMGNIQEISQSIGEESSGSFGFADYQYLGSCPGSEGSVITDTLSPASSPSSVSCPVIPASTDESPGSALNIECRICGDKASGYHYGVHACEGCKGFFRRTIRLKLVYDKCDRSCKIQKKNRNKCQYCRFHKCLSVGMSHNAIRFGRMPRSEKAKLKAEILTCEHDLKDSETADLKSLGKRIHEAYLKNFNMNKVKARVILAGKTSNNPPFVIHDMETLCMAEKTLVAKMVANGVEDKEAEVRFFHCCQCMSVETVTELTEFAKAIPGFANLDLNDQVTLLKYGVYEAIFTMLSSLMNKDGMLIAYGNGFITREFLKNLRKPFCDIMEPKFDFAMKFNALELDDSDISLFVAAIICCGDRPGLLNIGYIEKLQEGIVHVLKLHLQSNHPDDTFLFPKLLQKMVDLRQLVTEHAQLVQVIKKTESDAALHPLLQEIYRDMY

[6] = target: T5, Peroxisome proliferator-activated receptor alpha (Rattus norvegicus, UniProt P37230); assay: Agonist activity at rat PPARalpha; format: functional
T5 sequence (P37230 whole entry): T4 sequence (P23204 whole entry) with I41L, G50S, V85A, I86V, A88T, S96N, V135A, G207A, D265N

[7] = Agonist activity at rat PPARdelta; format: functional
Canis familiaris [8] = assay: Antidyslipidemic activity in high-fat diet fed dog assessed as decrease in free fatty acid at 0.01 mg/kg, po administered QD for 1 week (reference value: 0.624 +/- 0.057 mEq/L); format: functional, Canis lupus familiaris
[9] = Half life in rat at 1 mg/kg, po; format: ADME, organism-based; parameters: dose 1 mg/kg, route oral; conditions: in vivo
Canis familiaris [10] = assay: Antidyslipidemic activity in high-fat diet fed dog assessed as decrease in free fatty acid at 0.03 mg/kg, po administered QD for 1 week (reference value: 0.624 +/- 0.057 mEq/L); format: functional, Canis lupus familiaris
Canis familiaris [11] = assay: Antidyslipidemic activity in high-fat diet fed dog assessed as decrease in total cholesterol at 0.003 mg/kg, po administered QD for 1 week (reference value: 205 +/- 6 mg/dL); format: functional, Canis lupus familiaris
[12] = Agonist activity at hamster PPARalpha; format: functional, Cricetinae

**Q.** With Cc1nc(-c2ccc(Cl)cc2)sc1C(=O)N[C@H]1CCCN(c2cccc(C(=O)O)c2)C1 as the molecule, how does the pEC50 [1] read?
**A.** The pEC50 was 8.10.

**Q.** And the bioavailability [2]?
**A.** The bioavailability was 47.6%.

**Q.** What about the pEC50 [3] of the same molecule?
**A.** Its pEC50 is 5.02.

**Q.** What about the pEC50 [4] of the same molecule?
**A.** Its pEC50 is 5.57.

**Q.** What about the pEC50 [5] of the same molecule?
**A.** Its pEC50 is 5.33.

**Q.** What about the pEC50 [6] of the same molecule?
**A.** Its pEC50 is 5.44.

**Q.** What about the pEC50 [7] of the same molecule?
**A.** Its pEC50 is less than 4.85.

**Q.** And the Activity (Canis familiaris [8])?
**A.** The Activity was 0.651 mEq/L.

**Q.** What about the half-life [9] of the same molecule?
**A.** The half-life was 10 h.

**Q.** What about the Activity (Canis familiaris [10]) of the same molecule?
**A.** The Activity was 0.576 mEq/L.

**Q.** And the Activity (Canis familiaris [11])?
**A.** Its Activity is 190 mg/dL.

**Q.** And the pEC50 [12]?
**A.** The pEC50 was 6.21.
